In patent US9932300B2, “N,N′-diarylurea compounds and N,N′-diarylthiourea compounds as inhibitors of translation initiation” (President and Fellows of Harvard College, priority 2009, dated 2018):

System: eIF2-GTP-Met-tRNAi ternary complex
Assay: Ternary complex assay (dual luciferase, firefly/renilla ratio) in stable KLN-tTA/pBISA-DL(ATF-4) cells; HTS and hit confirmation
Format: cell-based, mouse
Parameters: Activity 10 uM / Activity 2.5 uM / Activity 5 uM: unit not given here
Conditions: confirmed hits of the screen (Table 5); for Activity 2.5 uM: compound at 2.5 uM; for Activity 10 uM: compound at 10 uM; for Activity 5 uM: compound at 5 uM

Compound | Activity 2.5 uM | Activity 10 uM | Activity 5 uM
[C-]#[O+].[C-]#[O+].[C-]#[O+].[C-]#[O+].[C-]#[O+].[CH3][Sn]([Cl])[c]1ccccc1.[Mn] [Compound 319699] | 0.29 | 3.62 | 
S=c1nccc[nH]1.[Pd] [Compound 321197] |  | 5.0845 | 5.014
S=c1nccc[nH]1.[Pt] [Compound 321198] |  | 9.062 | 8.313
COc1ccc(CCN2C(=O)C(=O)N(c3ccc(Cl)c(Cl)c3)C2=O)cc1OC [Compound 323938] | 0.99 | 5.53 | 
CCCCCC(CN(C)C)C(=O)CC(SCC)c1ccc(Cl)c(Cl)c1 (stereo not drawn) [Compound 326123] | 0.47 | 12.9 | 
c1ccc(Nc2nnc(-c3ccc4c(c3)OCO4)o2)cc1 [Compound 326181] |  | 7.027 | 5.584
CSC(=Nc1nc2ccc([N+](=O)[O-])cc2s1)SC [Compound 327371] |  | 22.247 | 13.29
O=[N+]([O-])c1cccnc1S(=O)(=O)c1ccccn1 [Compound 327414] |  | 6.977 | 3.793
CN(C)c1ccc(NC(=O)c2ccccc2O)cc1 [Compound 328479] |  | 7.342 | 7.502
Cc1cccc(/C=N/Nc2ccc3ccccc3n2)n1 [Compound 332423] |  | 5.4265 | 4.287
Cc1cccc(/C=N/Nc2cc(C)c3ccccc3n2)n1 [Compound 332426] | 2.37 | 3.15 | 
C/C(=N\NC(=S)N1CCSCC1)c1ccccn1 [Compound 332543] |  | 5.182 | 4.083
O=C1C(Cl)=C(Nc2nccs2)C(=O)c2ccccc21 [Compound 337757] |  | 5.978 | 6.205
N#C/C(=C/C=C/c1ccccc1)c1ccccc1 [Compound 338119] |  | 5.6885 | 3.435
Cc1ccc(/C=C/c2ccc([N+](=O)[O-])cc2)cc1 [Compound 338462] |  | 6.4125 | 4.54
COc1ccc2c(Cc3ccccc3)c3[n+](cc2c1OC)CCc1cc2c(cc1-3)OCO2.[Br-] [Compound 338631] | 1.12 | 3.39 | 

Compound | Activity 2.5 uM | Activity 10 uM | Activity 5 uM
O=C(CC(c1cccnc1)C(C(=O)c1ccc(Cl)cc1)C(CC(=O)c1ccc(Cl)cc1)c1cccnc1)c1ccc(Cl)cc1 (stereo not drawn) [Compound 339119] | 1.01 | 4.42 | 
C1=C(c2ccccc2)OC(c2ccccc2)=C(c2ccccc2)[P+]1(c1ccccc1)c1ccccc1.[Br-] [Compound 339567] | 1.94 | 11.94 | 
Cc1ccc(Sc2ccc3ccccc3n2)cc1 [Compound 340215] | 2.4 | 3.11 | 
CN1/C(=C/C=C/C=C/C2=[N+](C)c3ccccc3C2(C)C)C(C)(C)c2ccccc21.[I-] [Compound 340302] | 3.29 | 4.54 | 
COc1ccc(N=C(C)C2C(=O)c3ccccc3C2=O)cc1 [Compound 343385] |  | 8.3265 | 11.2
CC(=Nc1ccc(F)cc1)C1C(=O)c2ccccc2C1=O [Compound 343386] |  | 5.4775 | 4.235
COc1cccc(N=C(C)C2C(=O)c3ccccc3C2=O)c1 [Compound 343387] | 2.32 | 3.33 | 
O=C(NCC(=O)N1CCCC1)N/N=C/c1ccccc1O [Compound 343979] |  | 3.1255 | 2.571
CC(C)[N+](=C1O[B-](c2ccccc2)(c2ccccc2)O[B-]1(c1ccccc1)[C+]1CCCCC1)C(C)C (stereo not drawn) [Compound 344506] | 0.69 | 5.08 | 
Cc1nc2cc3c(cc2n2cccc12)oc1ccccc13 [Compound 346212] |  | 5.7595 | 5.376
Nc1cc2c(cc1-n1cccc1)oc1ccccc12 [Compound 347204] |  | 6.6455 | 4.246
Clc1nc2cc3c(cc2n2cccc12)oc1ccccc13 [Compound 347816] |  | 3.5245 | 3.143
Br.CN1CCC2(C)CC(Br)(Cc3ccccc32)C1Cl (stereo not drawn) [Compound 349125] | 0.47 | 13.75 | 
[Cl][Hg][Cl] [Compound 353255] | 3.3 |  | 
C/C(=N\NC(=S)Nc1nccs1)c1ccccn1 [Compound 354087] | 2.65 | 10.14 | 
O=C(Nc1nc2ccsc2s1)c1ccccc1 [Compound 354215] | 3.08 | 4.14 | 
